The values below come from patent publication US11123391B2, “Nasal composition” (INQPHARM GROUP SDN BHD, priority 2015, dated 2021).

SMILES strings stand for the structures.

For this data set, the system named is HMC1 cells. The data set can be described thus: In vitro testing of mast cell line HMC-1: histamine release after IgE/anti-IgE, ELISA of supernatant. In kind it is cell-based. The conditions noted are these: calcium ionophore 100 μg/ml, 30 min; for histamine production / release: no IgE/anti-IgE. The protocol: Mast cell lines, i.e. HMC1 cells (provided by Dr Joseph H. Butterfield; Mayo Clinic, Rochester, Minn., USA), were cultured in Isocove's Modified Dulbecco's Medium (IMDM) containing 10% Fetal Bovine Serum (FBS), 2 mM L-glutamine, 50 μM 2-mercaptoethanol, 100 U/mL penicillin and 100 μg/mL streptomycin. Cells were maintained at 37° C. in 5% CO2 in a humidified atmosphere.
Percentage of living cells was determined by trypan blue staining. A 1:10 dilution with 50 μl cell suspension and 450 μl trypan blue was prepared and the number of living and dead cells was counted in a hemocytometer. 10^6 living cells were transferred into safe-lock Eppendorf tubes. Cell suspensions were centrifuged (200 g, 5 min) and supernatant was discarded.
The effect of perilla oil, sesame oil and a combination of perilla oil and sesame oil (in a combination ratio of 1:1) in the vehicle Kolliphor ELP (polyoxyl-35 hydrogenated castor oil) was determined. The positive control Cromolyn in phosphate buffer saline (PBS), the vehicles PBS and ELP, and calcium ionophore A23187 were also tested as controls.
After adding 100 μl IgE (100 ng/ml in PBS/ELP) to the cell pellets, cells were incubated for 12 hours over night, at 37° C. Cells were than incubated for 2 hours, at 37° C. with different concentrations of compounds. After centrifugation (200 g, 5 min), supernatant was discarded and cell pellet was again incubated for 1 hour, at 37° C. with 100 μl anti-IgE (1 μg/ml in PBS/ELP). For the final incubation time of 6 hours, at 37° C., 300 μl HMC1 media was added. Cells were again centrifuged (200 g, 5 min) and supernatant was collected and stored as 300 μl aliquots at −20° C. for ELISA measurements. Cell pellets were resuspended in 100 μl HMC1 media for determining cell viability.
The procedure was slightly different when the compound testing was calcium ionophore A23187. […]
The concentration of histamine in the collected supernatant was determined by ELISA, using a kit obtained from IBL International according to the manufacturer's guidelines. Each sample was measured twice. […]
For orientation: In an ELISA, binding on a coated surface is turned into a signal by an enzyme label.

With `CNc1ccc2oc(C[C@H]3O[C@@]4(CC[C@H]3C)O[C@H]([C@H](C)C(=O)c3ccc[nH]3)[C@H](C)C[C@H]4C)nc2c1C(=O)O` [calcium ionophore, calcium ionophore A23187], the “effect on the cells (cell viability)” value was “cells were completely destroyed” and the “histamine production / release” value is “highest values of histamine production”. Also, the “histamine production / release” value (listed as Calcium ionophore) is recorded as “released all histamine”.
